Results on 17 compounds are retold here after patent US20210045420A1, “SWEETENER AND FLAVOR COMPOSITIONS, METHODS OF MAKING AND METHODS OF USE THEREOF” (EPC Natural Products Co., Ltd., priority 2018, published 2021).

Entries after “also recorded” stand apart in the source; their conditions may differ. Residues, ends and D or L forms follow the SMILES beside them.

The nature of experiment [1]: Sensory evaluation of the samples prepared in Example 50 (Example 52; panel of 4, score 0-5 or +/++/+++). Also noted: key to Intensity of Smell: “+” for slight; “++” for moderate; “+++” for very strong. The experiment is classed as in vivo, human.
Procedure: The reaction partner (amino acid, carbohydrate source) were dissolved/suspended in the reaction solvent and transferred into a glass beaker filled with sand pre-heated for at least 30 minutes at the reaction temperature in a drying oven. After the planned reaction time, the vials were transferred into ice water. After cooling to room temperature, sensory analysis and analytical characterization was performed.
For evaluation of the taste profile, the samples were tested by a panel of four people. 1 trained taster tasted independently the samples first. The taster was asked to describe the taste profile and score 0-5 according to the increasing sugar likeness, bitterness, aftertaste and lingering taste profiles. The first taster was allowed to re-taste, and then make notes for the sensory attributes perceived. Afterwards, another 3 tasters tasted and the attributes were noted and discussed openly to find a suitable description. In case that more than 1 taster disagreed with the results, the tasting was repeated. In some sensory test results (above), the taste rating was expressed by “+”, which means the intensity of the factors is shown by three levels. “+” for slight, “++” for moderate and “+++” for very strong.
Experiment [2] can be described thus: Assay to test DPPH radical-scavenging activity, Example 65. It is filed as biochemical. The note with it: Reb-A with or without amino acids, 100° C., FIG. 49 and FIG. 50. How it is done: 1 mg 1,1-Diphenyl-2-picrylhydrazyl radical (DPPH)/ml ethanol, dilution to assay concentration were prepared in ethanol (40 μg/mL); Calibration samples were prepared with Ascorbic acid in a concentration of 0-10 μg/mL; as a negative control sample, water was used.
Samples in aqueous solution were used as such or diluted with water.
A 0.1 ml sample (or calibration standard) was mixed with 3.9 ml solution of DPPH (100 μMolar) and reacted while protected from light at room temperature for 30 min. Absorbance was determined at 517 nm against ethanol.
10 mM of amino acid and/or 10 mM sugar were dissolved in 10 ml 0.1 mM KH2PO4-buffer, pH=7.8.
The samples were kept at 100° C. in sealed glass vials (Pyrex 15 ml with screw caps) for 0 (before reaction), 2.5 or 5.0 hours. Thereafter the samples were transferred to an ice water bath and cooled down to room temperature. These samples were diluted 1:10 and used for the test assay for anti-oxidant potential.
On the technique in general: Loss of DPPH colour is used to gauge radical scavenging.

For experiment [3] the following is noted: sweetness depends on the tested concentration compared with sucrose; cited from earlier work.
Experiment [4] can be described thus: Sensory evaluation of GSGs and SGs, thaumatin, NHDC and combinations, Example 255. The settings on record: combinations of EPCalin (Thaumatin 45%) and NHDC dissolved in water. How it is done: 4.5 ppm Thaumatin (equivalent to 10 ppm EPCalin) was dissolved in water. Increasing amounts of NHDC (1-5 ppm) were added to the solution and the sensory properties were evaluated.
50 ppm (GSGs and SGs) were dissolved in water. Increasing amounts of NHDC (1-5 ppm) were added to the solution and the sensory properties were evaluated.
50 ppm (GSGs and SGs) and 4.5 ppm Thaumatin (equivalent to 10 ppm EPCalin) were dissolved in water. Increasing amounts of NHDC (1-5 ppm) were added to the solution and the sensory properties were evaluated.
Sweetness intensity was rated on 5-point scale
Sweetness intensity was rated on a 5-point scale

[5] abbreviates: Table 52.2, reaction in 1 ml water + 9 ml Glycerin, 0.67 h, 100° C. (Table 50.2).
Setting [6] is: Table 52.1, samples prepared in Example 50.
Where [7] appears, read: Table 52.5, reaction in 1 ml water + 9 ml Glycerin, 2.0 h, 120° C. (Table 50.5).
The mark [8] stands for this setting: Table 52.3, reaction in 1 ml water + 9 ml Glycerin, 0.67 h, 100° C. (Table 50.3).

For the compound `C=C1C[C@@]23CC[C@H]4[C@@](C)(CCC[C@@]4(C)C(=O)O[C@@H]4O[C@H](CO)[C@@H](O)[C@H](O)[C@H]4O)[C@@H]2CC[C@]1(O[C@@H]1O[C@H](CO)[C@@H](O)[C@H](O[C@@H]2O[C@H](CO)[C@@H](O)[C@H](O)[C@H]2O)[C@H]1O[C@@H]1O[C@H](CO)[C@@H](O)[C@H](O)[C@H]1O)C3` [0.05 mMol Reb-A], in experiment [1] (setting [5]), the Smell result is on record as “neutral/unpleasant” and the Taste entry was “sweet”.

For the compound `C=C1C[C@@]23CC[C@H]4[C@@](C)(CCC[C@@]4(C)C(=O)O[C@@H]4O[C@H](CO)[C@@H](O)[C@H](O)[C@H]4O)[C@@H]2CC[C@]1(O[C@@H]1O[C@H](CO)[C@@H](O)[C@H](O[C@@H]2O[C@H](CO)[C@@H](O)[C@H](O)[C@H]2O)[C@H]1O[C@@H]1O[C@H](CO)[C@@H](O)[C@H](O)[C@H]1O)C3` [Reb-A, Rebaudioside A], the anti-oxidant properties entry in experiment [2] was “substantial anti-oxidant properties”.

With `N[C@@H](CCC(=O)O)C(=O)O` [167 mMol Glu], in experiment [1] (setting [6]), the Smell entry is “caramel” and the Taste entry was “Sweet”.

On to `N[C@@H](Cc1ccccc1)C(=O)O` [0.1 mMol Phe], for which, in experiment [1] (setting [5]), the Smell entry is “flowery/bloomy,; also recorded: caramel” and the Taste entry is on record as “sweet”. Further, in experiment [1] (setting [7]), the “Intensity of Smell” value is given as “+”; the Smell entry is “Caramel, burnt”; the Taste entry is “sweet”.

With `C=C1C[C@@]23CC[C@H]4[C@@](C)(CCC[C@@]4(C)C(=O)O[C@@H]4O[C@H](CO)[C@@H](O)[C@H](O)[C@H]4O)[C@@H]2CC[C@]1(O[C@@H]1O[C@H](CO)[C@@H](O)[C@H](O)[C@H]1O)C3` [Rubusoside], the “times sweeter than sucrose / sugar” value in experiment [3] is 200 times.

Take `COC(=O)[C@H](Cc1ccccc1)NC(=O)[C@@H](N)CC(=O)O` [Aspartame] (H-Asp-Phe-OMe): the “times sweeter than sucrose / sugar” value in experiment [3] is 160-200 times.

For the compound `C[C@H](CC[C@@H](O[C@@H]1O[C@H](CO)[C@@H](O)[C@H](O)[C@H]1O[C@@H]1O[C@H](CO)[C@@H](O)[C@H](O)[C@H]1O)C(C)(C)O)[C@H]1CC[C@@]2(C)[C@H]3CC=C4[C@@H](CC[C@H](O[C@@H]5O[C@H](CO[C@@H]6O[C@H](CO)[C@@H](O)[C@H](O)[C@H]6O)[C@@H](O)[C@H](O)[C@H]5O)C4(C)C)[C@]3(C)[C@H](O)C[C@]12C` [mogroside IV], the “times sweeter than sucrose / sugar” value in experiment [3] is given as 126 times.

Regarding `C[C@H](CC[C@@H](O[C@@H]1O[C@H](CO[C@@H]2O[C@H](CO)[C@@H](O)[C@H](O)[C@H]2O)[C@@H](O)[C@H](O)[C@H]1O[C@@H]1O[C@H](CO)[C@@H](O)[C@H](O)[C@H]1O)C(C)(C)O)[C@H]1CC[C@@]2(C)[C@@H]3CC=C4[C@@H](CC[C@H](O[C@@H]5O[C@H](CO[C@@H]6O[C@H](CO)[C@@H](O)[C@H](O)[C@H]6O)[C@@H](O)[C@H](O)[C@H]5O)C4(C)C)[C@]3(C)[C@H](O)C[C@]12C` [mogroside V], the “times sweeter than sucrose / sugar” value in experiment [3] is listed as 256-344 times.

For `C[C@H](N)C(=O)O` [0.1 mMol Ala], in experiment [1] (setting [5]), the Smell entry was “Agar” and the Taste entry is “sweet”.

With `O=C[C@H](O)[C@H]1OC(=O)[C@@H](O)[C@H]1O` [0.1 mMol GlucLac], in experiment [1] (setting [7]), the “Intensity of Smell” value is on record as “+++”, the Smell result was “Burnt sugar” and the Taste result was “Bitter”.

On to `O=S(=O)([O-])NC1CCCCC1.[Na+]` [sodium cyclamate], for which the “times sweeter than sucrose / sugar” value in experiment [3] is “about 30 times”.

With `N[C@@H](Cc1ccccc1)C(=O)O` [Phe 60 mMol], in experiment [1] (setting [6]), the Smell entry is “flowery/bloomy-caramel” and the Taste result is recorded as “Sweet”.

Consider `NCCCC[C@H](N)C(=O)O` [0.1 mMol Lys], for which, in experiment [1] (setting [8]), the Smell entry was “Popcorn” and the Taste result is reported as “Sweet”.

Take `OC[C@@H](O)[C@@H](O)[C@H](O)[C@H](O)CO` [Mannitol]: the “times sweeter than sucrose / sugar” value in experiment [3] is 0.55-0.65 times.

For the compound `OC[C@H]1O[C@H](O[C@]2(CCl)O[C@H](CCl)[C@@H](O)[C@@H]2O)[C@H](O)[C@@H](O)[C@H]1Cl` [sucralose], the “times sweeter than sucrose / sugar” value in experiment [3] is given as “about 600 times”.

In the case of Thaumatin, the “times sweeter than sucrose / sugar” value in experiment [3] is “about 2000 times”.

In the case of `COc1ccc(CCC(=O)c2c(O)cc(O[C@@H]3O[C@H](CO)[C@@H](O)[C@H](O)[C@H]3O[C@@H]3O[C@@H](C)[C@H](O)[C@@H](O)[C@H]3O)cc2O)cc1O` [10 ppm NHDC], the Sensory evaluation entry in experiment [4] is reported as “Sweet, steep onset of sweetness, no lingering”.
